Results: patent publication US7879835B2 (Korea Research Institute of Chemical Technology, priority 2004, dated 2011)

What was measured:
[1] = system: osteoclast (TRAP-positive multinuclear cell) formation; assay: Inhibitory effect on osteoclast formation (TRAP staining); assay type: cell-based, mice; conditions: 8 days culture with M-CSF and RANKL, compared to control
Outline: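 Non-adherent bone marrow cells from 7–9-week-old female mice, 2×10^5 per well, cultured 8 days with M-CSF (20 ng/ml), RANKL (30 ng/ml) and compound at 0.3, 1.0 or 3 μM. Formation scored by TRAP staining after fixation, 1 h at 37 °C, pH 5.0.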

[2] = system: osteoclasts; assay: Inhibitory effect on resorption activity of osteoclast (resorption pit area on calcium phosphate-coated plate); assay type: cell-based, mice; conditions: compared to control
Procedure: After finishing culture, the plate was washed with distilled water, and 50 μl/well of 5% sodium hypochlorite was added to the plate. The plate was let alone for 5 min, washed again with distilled water to remove the adherent cells, and dried at room temperature. Then, the area of formed resorption pits was calculated by means of Image Pro Plus software (Media Cybernetics Ver. 3.0).

[3] = system: MG-63 cells; assay: Cytotoxicity test against osteoblast (MTT); assay type: cell-based, human
Procedure: In order examine the toxicities of the compounds of the Examples against osteoclast pregenitors, pregenitor cells were aliquotted onto a 96-well microplate at a density of 2×10^5 cells per well, treated with 2, 4 and 8 μM of the test compounds, respectively, and cultured for 48 hrs in α-MEM supplemented with 20 ng/ml of M-CSF (Peprotech, USA) using 37° C. incubator (5% CO2). At 3 hrs before the culture was finished, 50 μl of MTT (3-(4,5-dimethylthiazol-2-yl)-2,5-diphenyltetrazolium bromide) solution (50 μg/ml) was added to each well. Upon completion of the cell culture, the supernatant was removed, and the precipitated dye was reacted with 100 μl of isopropanol/0.04 N HCl at room temperature for 30 min to dissolve it. The absorbances of the wells were measured at 550 nm, and the relative absorbance of each well relative to that of the control (set as 100) is shown in Table 6.
In order to examine the toxicity of the compounds of the Examples against osteoblasts, human osteosarcoma-derived cell line, MG-63 (ATCC No. CRL-1427) cells were treated with 0.1, 0.3, 1.0 and 3.0 μM of the compounds of the Examples, and cultured in DMEM supplemented with 10% FBS (fetal bovine serum).

[4] = In vitro pharmacokinetics: metabolic stability in liver microsome; assay type: in vitro ADME; conditions: human liver microsome 1 mg/ml, 20 μM compound
Procedure: Metabolic stabilities of the compounds of the Examples were examined by employing microsome samples prepared from the human liver.
Each 20 μM of the compounds were reacted with 1 mg/ml of liver microsome and the half-lives and one-hour stabilities of the compounds were determined.

[5] = In vivo pharmacokinetics using female mice (serum concentration, HPLC)
Procedure: Female mice each weighing […] were divided into groups of 5 mice each. The mice were anesthetized with ether, catheterized in their femoral artery and vein, respectively, and administered with 0.5 mg/kg body weight of compounds 234 and 274, and 5 mg/kg body weight of compounds 388, 404 and 415, respectively, via intravenous injection. Alternatively, 15 mg/kg body weight of compound 274 and 10 mg/kg body weight of compound 234 were orally administered to the mice.
At 0, 5, 10, 15 and 30 minutes and 1, 2, 4, 6, 9 and 12 hours after the intravenous injection, or at 0, 10, 20 and 40 minutes and 1, 2, 4, 6, 9 and 12 hours after the oral administration, 0.3 ml blood samples were taken from the mice through femoral artery. The blood samples were kept on an ice bath for 30 minutes and centrifuged at 3,000 rpm for 10 minutes to obtain a supernatant (serum). The supernatant samples were stored at −20° C.
Standard solution: Compounds 234, 274, 388, 404 and 415 were respectively dissolved in methanol to a concentration of 1 mg/ml to obtain stock solutions. The stock solutions were diluted with methanol to obtain standard solutions having concentrations of 40, 20, 10, 2, 1, 0.5, 0.2, 0.05 and 0.02 μg/ml, respectively.
Standard calibration curve: A stand calibration curve was prepared by employing calibration concentrations of 0.002, 0.005, 0.02, 0.05, 0.1, 0.2, 1, 2 and 4 μg/ml.
10 μl each of the standard solutions prepared above was added to 100 μl of normal serum sample and diluted 10 times. 250 μl of acetonitrile was added to the resulting dilution and the mixture was centrifuged for 10 minutes to obtain a supernatant. 300 μl of the supernatant was dried by evaporation under a nitrogen atmosphere and reconstituted by adding 50 μl of methanol. 20 μl of the resulting solution was analyzed by HPLC to prepare a standard calibration curve. HPLC was performed with Shimadzu ODS2 column (4.6×250 mm, 5 μm by employing a mixture of methanol/water (90/10 (v/v)) as the mobile phase at a flow rate of 1.2 ml/min, and measuring the absorbance at 240 nm.
Extraction: 100 μl of the serum sample obtained in (4-2-1) was put into a 1 ml microtube and 10 μl of methanol was added thereto. 250 μl of acetonitrile was added to the microtube and the mixture was centrifuged for 10 minutes to obtain a supernatant. 300 μl of the supernatant was dried by evaporation under a nitrogen atmosphere and reconstituted by adding 50 μl of methanol. 20 μl of the resulting solution was analyzed by the HPLC method as above.
Average concentrations of the compounds in the serum samples were plotted in a semi-log scale against the time lapsed after the administration, and the pharmacokinetic parameters were determined as a non-compartment open model by employing WinNonlin® program (Pharsight Corporation).

[6] = system: rats; assay: In vivo acute toxicity test (LD50); conditions: single dose, 2 weeks observation
Procedure: In order to determine the acute toxicities of the compounds prepared in Examples, 6-week old specific pathogen-free (SPF) rats each weighing […] were divided into groups of 10 rat each.
In case of subcutaneous administration, each of the compounds was dissolved in 5% PEG400 solution to a concentration of 20 mg/ml, the resulting solution was serially diluted with 5% PEG400 solution to concentrations of 5, 2.5, 1.25 and 0.625 mg/ml, and the dilutions were subcutaneously injected once to the rats at a dose of 10 ml/kg body weight.
In case of oral administration, each of the compounds was dissolved in soybean oil to a concentration of 180 mg/ml, the resulting solution was serially diluted with soybean oil to concentrations of 80, 20 and 5 mg/ml, and the dilutions were orally administered once to the rats at a dose of 20 ml/kg body weight. […]
During 2 weeks after the administration of the compounds, the death rate, clinical symptoms and weight changes of the rats were observed, and hematological and biochemical tests on blood samples were performed. Then, the rats were sacrificed and the internal organs were visually examined to check any abnormal signs in the organs of chest and abdomen.

| SMILES | Osteoclast formation inhibitory effects (%) ([1]; 0.3 μM) | Osteoclast formation inhibitory effects (%) ([1]; 1.0 μM) | Osteoclast formation inhibitory effects (%) ([1]; 3.0 μM) | Reduction (%) of the resorption pit area of osteoclasts ([2]; 0.3 uM) | Reduction (%) of the resorption pit area of osteoclasts ([2]; 1 uM) | Reduction (%) of the resorption pit area of osteoclasts ([2]; 3 uM) | relative absorbance relative to that of the control (set as 100), MTT ([3]; 0.33 uM) | relative absorbance relative to that of the control (set as 100), MTT ([3]; 1 uM) | relative absorbance relative to that of the control (set as 100), MTT ([3]; 3 uM) | Half-life [4] | One-hour stability [4] | LD50 ([6]; PO) | LD50 ([6]; SC) | also measured |
| --- | --- | --- | --- | --- | --- | --- | --- | --- | --- | --- | --- | --- | --- | --- |
| CO/C=C(/C(=O)OC)c1ccccc1COc1cccc(OCCN2CCOCC2)c1 [compound 234] | 25% | 100% | 100% | 95% | 100% | 100% | 98 | 115 | 97 | >3 h | 83% | 100-300 mg/kg body weight | 7 mg/kg body weight | AUC (area under the curve of blood concentration versus time) ([5]; I.V.): 477.6 ± 96.4 µg·h/mL; CL (clearance) ([5]; I.V.): 1.1 ± 0.2 mL/h; Half-life ([5]; I.V.): 10.6 ± 4.8 h; Vd (volume of distribution) ([5]; I.V.): 0.0152 ± 0.0052 L/kg; AUC (area under the curve of blood concentration versus time) ([5]; Oral): 680.4 ± 426.2 µg·h/mL; CL (clearance) ([5]; Oral): 19.5 ± 10.6 mL/h; Half-life ([5]; Oral): 12.8 ± 7.7 h; Vd (volume of distribution) ([5]; Oral): 0.3544 ± 0.2456 L/kg; bioavailability ([5]; oral versus I.V.): 35.4% |
| C=CCOc1ccc(OCc2cc(Cl)ccc2/C(=C\OC)C(=O)OC)cc1 [compound 264] | 98% | 100% | 100% | 100% | 100% | 100% | 107 | 104 | 92 | >3 h | 80% | 269 mg/kg body weight | 25 mg/kg body weight | relative absorbance relative to that of the control (set as 100), MTT ([3]; 0.11 uM): 103 |
| CCCCCCOc1cccc(/C(C)=N/OCc2ccccc2/C(=C\OC)C(=O)OC)c1 [compound 15, (E)-methyl 2-(((({1E}-1-(3-(n-hexyloxy)phenyl)ethylidene)amino)oxy)methyl)phenyl-3-methoxyacrylate] | 92% | 100% | 100% | 41% | 57% | 93% | 105 | 85 | 76 | 0.615 h | 33% | >2000 mg/kg body weight | >50 mg/kg body weight |  |
